Measured values reported in patent US9597407B2, “Targeted antimicrobial moieties” (C3 Jian, Inc., priority 2009, dated 2017).
Entries after “also recorded” stand apart in the source; their conditions may differ. Ends that are not written are not given here.

Experiments:
microorganisms [1] = experiment: Peptide activities: binding, antimicrobial, growth or phenotype altering (Table 8)
From the text: In certain embodiments, peptides described herein can have multiple activities. Thus for example, a peptide can have both binding/targeting activity and antimicrobial activity. Such peptides can be used, e.g., in a chimeric construct, for any or all of these properties. Thus, for example, a peptide designated “B” in Table 8 can be used as a targeting peptide. If it is also designated G or M it can also be used for antimicrobial activity.

bacteria = experiment: Binding of targeting peptides to microorganisms (Table 3); settings: peptide binding in aqueous buffers that varied depending on peptide solubility; preferably 1x PBS
microorganisms [2] = experiment: Morphology, biofilm and growth disruption by peptides (Table 5); assay type: cell-based; set-up: key: A: Peptide aggregates; B: Less hyphal formation; Clumps; Diffuse clumps and small polyps; F: Diffuse growth; H: Thin; I: Growth inhibition; Microcolony formation; Rippled; Small polyps; Thick; W: Halo formation on top, microlonies on bottom
From the text: In certain embodiments peptides that induce alterations in phenotype or other biological activities can also be used as antimicrobial effector moieties.

| Substance | Activities (microorganisms [1]) | Target(s) (microorganisms bound by the targeting peptide) (bacteria) | Organism, effect (morphology, biofilm and growth disruption) (microorganisms [2]; S. pneumoniae) | Organism, effect (morphology, biofilm and growth disruption) (microorganisms [2]; E. faecalis) | Organism, effect (morphology, biofilm and growth disruption) (microorganisms [2]; MRSA) | Organism, effect (morphology, biofilm and growth disruption) (microorganisms [2]; S. epidermidis) | Organism, effect (morphology, biofilm and growth disruption) (microorganisms [2]; E. coli) | Organism, effect (morphology, biofilm and growth disruption) (microorganisms [2]; C. jejuni) |
| --- | --- | --- | --- | --- | --- | --- | --- | --- |
| PF-445 (ASMTKRLKLAMSKV; Peptide with targeting and/or antimicrobial activity) | G B | M. luteus; also recorded: S. pneumoniae; also recorded: C. jeikeium | S. pneumoniae (M) |  |  |  |  |  |
| PF-446 (SGNEKV; Peptide with targeting and/or antimicrobial activity) | G B | M. luteus; also recorded: C. jeikeium | S. pneumoniae (H) |  |  |  |  |  |
| PF-447 (IDKSRNKDQFSHIFGLYNICSG; Peptide with targeting and/or antimicrobial activity) | G B | S. epidermidis; also recorded: M. luteus; also recorded: E. coli; also recorded: S. pneumoniae | S. pneumoniae (C) | E. faecalis (C) | MRSA (C) | S. epidermidis (C) |  |  |
| PF-452 (MNNWIKVAQISVTVINEVIDIMKEKQNGGK; Peptide with targeting and/or antimicrobial activity) | G B | M. luteus; also recorded: P. aeruginosa; also recorded: C. albicans; also recorded: S. pneumoniae; also recorded: E. faecalis; also recorded: C. jeikeium; also recorded: M. smegmatis | S. pneumoniae (R) | E. faecalis (C) | MRSA (C) | S. epidermidis (C) | E. coli (C) |  |
| PF-453 (IIQDIAHAFGY; Peptide with targeting and/or antimicrobial activity) | G B | M. luteus; also recorded: E. coli; also recorded: P. aeruginosa; also recorded: S. pneumoniae; also recorded: E. faecalis; also recorded: C. jeikeium; also recorded: C. jejuni | S. pneumoniae (C) |  | MRSA (C) | S. epidermidis (C) | E. coli (C) |  |
| PF-456 (TCVKPRTIN; Peptide with targeting and/or antimicrobial activity) | G B | C. albicans and MRSA and E. faecalis and C. jeikeium and C. jejuni |  | E. faecalis (A) |  |  |  | C. jejuni (A) |
| PF-457 (INKYHHIA; Peptide with targeting and/or antimicrobial activity) | G B | C. albicans; also recorded: S. pneumoniae; also recorded: E. faecalis; also recorded: C. jeikeium | S. pneumoniae (M) |  |  |  |  |  |
| PF-459 (EKRMSFNENQSHRPLL; Peptide with targeting and/or antimicrobial activity) | G B | P. aeruginosa | S. pneumoniae (H) |  |  |  |  |  |
| PF-461 (MTLAIKNCSVTKCLGFGDFVNDDSDSYFDA; Peptide with targeting and/or antimicrobial activity) | G B | E. coli; also recorded: S. pneumoniae | S. pneumoniae (R) | E. faecalis (A) | MRSA (R) |  |  |  |
| PF-462 (KNKTDTL; Peptide with targeting and/or antimicrobial activity) | G B | E. faecalis; also recorded: C. jeikeium | S. pneumoniae (H) |  |  |  |  |  |
| PF-464 (VDMVNRFLGN; Peptide with targeting and/or antimicrobial activity) | G B | S. epidermidis and C. albicans and MRSA and S. pneumoniae and E. faecalis and C. jeikeium and C. jejuni | S. pneumoniae (S) |  |  |  |  |  |
| PF-466 (VRKSDQ; Peptide with targeting and/or antimicrobial activity) | G B | MRSA and C. jeikeium and C. jejuni | S. pneumoniae (H) |  |  |  |  |  |
| PF-467 (YYKDYFKEI; Peptide with targeting and/or antimicrobial activity) | G B | MRSA and E. faecalis and C. jeikeium and C. jejuni | S. pneumoniae (H) |  |  |  |  |  |
| PF-470 (PYSDSYATRPHWEQHRAR; Peptide with targeting and/or antimicrobial activity) | G B | M. luteus and E. coli and MRSA and E. faecalis and C. jeikeium and C. jejuni |  | E. faecalis (A) |  |  |  | C. jejuni (A) |
| PF-472 (MHISHLLDEVEQTEREKAVNVLENMNGNVI; Peptide with targeting and/or antimicrobial activity) | G B | S. epidermidis and E. coli and P. aeruginosa and C. albicans and MRSA and S. pneumoniae and E. faecalis and C. jeikeium | S. pneumoniae (R) | E. faecalis (A) | MRSA (C) |  |  | C. jejuni (R) |
| PF-476 (WADAQYKLCENCSE; Peptide with targeting and/or antimicrobial activity) | G B | M. luteus; also recorded: P. mirabilis; also recorded: C. albicans; also recorded: S. pneumoniae; also recorded: E. faecalis; also recorded: C. jeikeium; also recorded: C. jejuni | S. pneumoniae (H) |  |  |  |  |  |
| PF-484 (HKKDIRKQVFKN; Peptide with targeting and/or antimicrobial activity) | G B | S. epidermidis; also recorded: M. luteus; also recorded: P. mirabilis; also recorded: E. coli; also recorded: E. faecalis; also recorded: C. jeikeium; also recorded: C. jejuni |  | E. faecalis (A) |  |  |  |  |
| PF-513 (SNGVGLGVGIGSGIRF-NH2) | G B | C. albicans | S. pneumoniae (M) |  |  |  |  |  |
| PF-514 (QRFYKLFYHIDLTNEQALKLFQVK; Peptide with targeting and/or antimicrobial activity) | G B | S. epidermidis and E. coli and P. aeruginosa and C. albicans and MRSA and S. pneumoniae and E. faecalis and C. jeikeium | S. pneumoniae (M) | E. faecalis (C) |  | S. epidermidis (C) | E. coli (R) |  |
| PF-515 (DKSTQDKDIKQAKLLAQELGL-NH2) | G B | S. epidermidis; also recorded: C. albicans; also recorded: S. pneumoniae; also recorded: C. jeikeium | S. pneumoniae (H) |  |  |  |  |  |
| PF-517 (VKPTMTASLISTVC; Peptide with targeting and/or antimicrobial activity) | G B | C. jejuni | S. pneumoniae (M) |  |  |  |  |  |
| PF-518 (SFYSKYSRYIDNLAGAIFLFF; Peptide with targeting and/or antimicrobial activity) | G B | S. epidermidis and E. coli and P. aeruginosa and C. albicans and MRSA and S. pneumoniae and E. faecalis | S. pneumoniae (M) | E. faecalis (C) | MRSA (C) | S. epidermidis (C) | E. coli (R) |  |
